Read-outs that look alike come from different tables or passages of the source. Bridge positions count the residues as written; N and C are the ends. Square brackets hold non-standard residues; d marks the D form. Peptide text beside a SMILES is read from it. Bip = N[C@@H](Cc1ccc(-c2ccccc2)cc1)C(=O)O; 2Nal = N[C@@H](Cc1ccc2ccccc2c1)C(=O)O; d2Nal = N[C@H](Cc1ccc2ccccc2c1)C(=O)O; hArg = N=C(N)NCCCC[C@H](N)C(=O)O; Nle = CCCC[C@H](N)C(=O)O; GABA = NCCCC(=O)O; βAla = NCCC(=O)O
Experiments:
[1] = biological target: T1, hMC1-R (Homo sapiens, UniProt Q01726); assay: Radioligand binding assay, [125I]-NDP-α-MSH competition, CHO-K1 membranes; conditions: Table 5
T1 construct: expressed in transfected cells; host or cells: CHO-K1
T1 sequence (Q01726 whole entry): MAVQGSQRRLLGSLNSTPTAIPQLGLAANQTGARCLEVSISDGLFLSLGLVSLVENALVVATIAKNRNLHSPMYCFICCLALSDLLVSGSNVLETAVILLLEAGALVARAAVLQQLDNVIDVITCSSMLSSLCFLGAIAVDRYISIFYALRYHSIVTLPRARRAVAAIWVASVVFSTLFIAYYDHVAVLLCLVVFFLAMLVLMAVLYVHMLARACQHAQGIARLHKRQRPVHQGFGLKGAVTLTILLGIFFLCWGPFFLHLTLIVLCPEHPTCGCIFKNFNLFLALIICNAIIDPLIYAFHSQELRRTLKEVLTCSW

[2] = biological target: T2, hMC3-R (Homo sapiens, UniProt P41968); assay: as above; conditions: Table 5
T2 construct: expressed in transfected cells; host or cells: CHO-K1
T2 sequence (P41968 whole entry): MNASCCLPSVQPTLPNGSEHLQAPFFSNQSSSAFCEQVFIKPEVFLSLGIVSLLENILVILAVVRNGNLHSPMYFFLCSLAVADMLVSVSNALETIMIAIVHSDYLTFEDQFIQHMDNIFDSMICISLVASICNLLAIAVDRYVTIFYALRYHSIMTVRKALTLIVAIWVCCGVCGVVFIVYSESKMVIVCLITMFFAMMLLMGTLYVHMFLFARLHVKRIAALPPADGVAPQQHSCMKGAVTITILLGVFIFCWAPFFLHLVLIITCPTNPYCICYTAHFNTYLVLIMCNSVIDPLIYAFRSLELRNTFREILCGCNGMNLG

[3] = biological target: T3, hMC4-R (Homo sapiens, UniProt P32245); assay: as above
T3 construct: expressed in transfected cells; host or cells: CHO-K1
T3 sequence (P32245 whole entry): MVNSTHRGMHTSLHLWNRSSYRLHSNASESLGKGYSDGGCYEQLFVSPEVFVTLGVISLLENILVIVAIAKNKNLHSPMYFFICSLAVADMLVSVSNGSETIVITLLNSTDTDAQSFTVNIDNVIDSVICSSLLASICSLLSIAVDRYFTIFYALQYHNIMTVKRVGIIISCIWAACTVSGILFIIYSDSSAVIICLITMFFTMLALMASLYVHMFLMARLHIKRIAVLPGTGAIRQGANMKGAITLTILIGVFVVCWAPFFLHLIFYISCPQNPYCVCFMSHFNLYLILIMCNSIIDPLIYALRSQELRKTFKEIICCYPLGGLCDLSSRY

[4] = biological target: T1, hMC1-R; assay: cyclic AMP bioassay (ECL) in CHO-K1 cells; assay type: cell-based
[5] = biological target: T2, hMC3-R; assay: cyclic AMP bioassay (ECL) in CHO-K1 cells; assay type: cell-based
[6] = biological target: T3, hMC4-R; assay: cyclic AMP bioassay (ECL) in CHO-K1 cells; assay type: cell-based
Protocol: (§1) Intracellular cyclic AMP (cAMP) levels were determined by an electrochemiluminescence (ECL) assay (Meso Scale Discovery®, Gaithersburg, Md.; referred to hereinafter as MSD). […] Transgenic CHO-K1 cells stably expressing hMC receptor subtypes 1, 3, 4 or 5 were dispensed at a density of approximately 7,000 cells/well in 384-well Multi-Array®plates (MSD) containing integrated carbon electrodes and coated with anti-cAMP antibody. Increasing concentrations of the test compounds were added and the cells were incubated for approximately 40 minutes at approximately 37° C. […] At the end of the second incubation period read buffer (Tris-buffered solution containing an ECL co-reactant and Triton X-100 at ph 7.8) was added and the cAMP levels in the cell lysates were immediately determined by ECL detection with a Sector Imager 6000 Reader® (MSD). Data were analyzed using a computer-assisted non-linear regression analysis (XL fit; IDBS) and reported as either an EC50 value or a Kb value.
(§2) The Kb value reflects the potency of an antagonist and is determined by Schild analysis. In brief, concentration-response curves of an agonist are carried out in the presence of increasing concentrations of an antagonist. […] It is calculated by extrapolating the line on a Schild plot to zero on the y-axis.

[7] = biological target: T4, hMC5-R (Homo sapiens, UniProt P33032); assay: cyclic AMP bioassay (ECL) in CHO-K1 cells; assay type: cell-based
T4 construct: expressed in transfected cells; host or cells: CHO-K1
T4 sequence (P33032 whole entry): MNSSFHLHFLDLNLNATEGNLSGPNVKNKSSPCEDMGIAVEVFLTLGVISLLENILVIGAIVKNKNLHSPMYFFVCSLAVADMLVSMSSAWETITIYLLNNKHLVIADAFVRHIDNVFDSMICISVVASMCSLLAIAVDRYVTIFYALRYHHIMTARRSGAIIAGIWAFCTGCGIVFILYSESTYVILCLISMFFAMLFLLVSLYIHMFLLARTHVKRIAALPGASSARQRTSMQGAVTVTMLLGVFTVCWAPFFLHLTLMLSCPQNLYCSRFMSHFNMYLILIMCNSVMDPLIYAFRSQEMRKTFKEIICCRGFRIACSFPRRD
Protocol: as §1, §2

[8] = biological target: T4, hMC5-R; assay: Radioligand binding assay, [125I]-NDP-α-MSH competition, CHO-K1 membranes

What does the source list for `CC(=O)N[C@@H](CCc1ccccc1)C(=O)N[C@H]1CC(=O)NCCCC[C@@H](C(N)=O)NC(=O)CCCNC(=O)[C@H](Cc2c[nH]c3ccccc23)NC(=O)[C@H](CCCNC(=N)N)NC(=O)[C@@H](Cc2ccc3ccccc3c2)NC(=O)[C@H](Cc2c[nH]cn2)NC1=O` [Ac-hPhe-c(Asp-His-D-2-Nal-Arg-Trp-Gaba-Lys)-NH2]?
Ki ([1]; read-out: Ki hMC1-R): 0.461 nM; Ki ([2]; read-out: Ki hMC3-R): 2.45 nM; Ki ([3]; Table 5, read-out: Ki KMC4-R): 0.931 nM; EC50 ([4]; Table 9C/9D, read-out: EC50 hMC1-R): 0.413 nM; Kb ([5]; Table 9C/9D, antagonist potency by Schild analysis, read-out: Kb hMC3-R): 9.32 nM; Kb ([6]; Table 9C/9D, antagonist potency by Schild analysis, read-out: Kb MC4-R): 0.824 nM; EC50 ([7]; Table 9C/9D, read-out: EC50 hMC5-R): 0.307 nM

Which results are given for `C[C@@H](O)[C@H](NC(=O)[C@H]1CSSC[C@H](NC(=O)[C@H](N)Cc2ccccc2)C(=O)N[C@@H](Cc2c[nH]cn2)C(=O)N[C@H](Cc2ccccc2)C(=O)N[C@@H](CCCCNC(=N)N)C(=O)N[C@@H](Cc2c[nH]c3ccccc23)C(=O)NCCC(=O)N1)C(N)=O` [D-Phe-c(Cys-His-D-Phe-hArg-Trp-β-Ala-D-Cys)-Thr-NH2] (H-[dF]CH[dF][hArg]W[βAla][dC]T-NH2; disulfide 2-8)?
Ki ([1]; read-out: Ki hMC1-R): 0.442 nM; Ki ([2]; read-out: Ki hMC3-R): 123 nM; Ki ([3]; Table 5, read-out: Ki KMC4-R): 10.3 nM; Ki ([8]; Table 5, read-out: Ki hMC5-R): 521 nM

What does the source list for `CCCC[C@H](NC(C)=O)C(=O)N[C@H]1CSSC[C@@H](C(N)=O)NC(=O)[C@H](Cc2ccc3ccccc3c2)NC(=O)[C@H](CCCNC(=N)N)NC(=O)[C@@H](Cc2ccc3ccccc3c2)NC(=O)[C@H](Cc2c[nH]cn2)NC(=O)[C@@H](C)NC1=O` [Ac-Nle-c(Cys-D-Ala-His-D-2-Nal-Arg-2-Nal-Cys)-NH2] (Ac-[Nle]C[dA]H[d2Nal]R[2Nal]C-NH2; disulfide 2-8)?
Ki ([1]; read-out: Ki hMC1-R): 32.5 nM; Ki ([2]; read-out: Ki hMC3-R): 5.85 nM; Ki ([3]; Table 5, read-out: Ki KMC4-R): 2.53 nM; Ki ([8]; Table 5, read-out: Ki hMC5-R): 94.6 nM

With `C[C@@H](O)[C@H](NC(=O)[C@H]1CSSC[C@H](NC(=O)[C@H](N)Cc2ccccc2)C(=O)N[C@@H](Cc2c[nH]cn2)C(=O)N[C@H](Cc2ccccc2)C(=O)N[C@@H](CCCNC(=N)N)C(=O)N[C@@H](Cc2ccc(-c3ccccc3)cc2)C(=O)NCCC(=O)N1)C(N)=O` [D-Phe-c(Cys-His-D-Phe-Arg-Bip-β-Ala-D-Cys)-Thr-NH2] (H-[dF]CH[dF]R[Bip][βAla][dC]T-NH2; disulfide 2-8) as the compound, how does the Ki ([1]; read-out: Ki hMC1-R) read?
Its Ki is 5.8 nM.

What about the Ki ([2]; read-out: Ki hMC3-R) of the same compound?
The Ki was 3370 nM.

And the Ki ([3]; Table 5, read-out: Ki KMC4-R)?
Its Ki is 583 nM.

And the Ki ([8]; Table 5, read-out: Ki hMC5-R)?
Its Ki is 1130 nM.

How did the Ki ([1]; Ki hMC1-R) turn out when `CC(=O)N[C@H](CCCNC(=N)N)C(=O)N[C@H]1CSSC(C)(C)[C@@H](C(N)=O)NC(=O)[C@H](Cc2c[nH]c3ccccc23)NC(=O)[C@H](CCCNC(=N)N)NC(=O)[C@@H](Cc2ccccc2)NC(=O)[C@H](Cc2c[nH]cn2)NC(=O)[C@@H](C)NC1=O` [Ac-D-Arg-c(Cys-D-Ala-His-D-Phe-Arg-Trp-Pen)-NH2] was run?
Its Ki is 8.29 nM.

What about the Ki ([2]; Ki hMC3-R) of the same compound?
The Ki was 13.3 nM.

What about the Ki ([8]; Ki hMC5-R, Table 5) of the same compound?
Its Ki is 816 nM.

What about the EC50 [4] of the same compound?
Its EC50 is 26.5 nM.

What about the EC50 [5] of the same compound?
Its EC50 is 10.5 nM.

And the EC50 [6]?
The EC50 was 0.493 nM.

What about the EC50 [7] of the same compound?
Its EC50 is 2440 nM.

For `CCCC[C@H](NC(C)=O)C(=O)N[C@H]1CSSC[C@@H](C(N)=O)NC(=O)[C@@H](C)NC(=O)[C@H](Cc2c[nH]c3ccccc23)NC(=O)[C@H](CCCNC(=N)N)NC(=O)[C@@H](Cc2ccccc2)NC(=O)[C@H](Cc2c[nH]cn2)NC(=O)[C@@H](C)NC1=O` [Ac-Nle-c(Cys-D-Ala-His-D-Phe-Arg-Trp-D-Ala-Cys)-NH2] (Ac-[Nle]C[dA]H[dF]RW[dA]C-NH2; disulfide 2-9), which Ki ([1]; read-out: Ki hMC1-R) is on record?
The Ki was 3.93 nM.

And the Ki ([2]; read-out: Ki hMC3-R)?
The Ki was 876 nM.

What about the Ki ([3]; Table 5, read-out: Ki KMC4-R) of the same compound?
Its Ki is 48 nM.

And the Ki ([8]; Table 5, read-out: Ki hMC5-R)?
Its Ki is 4940 nM.

How did the Ki ([3]; Ki hMC4-R, Table 6) turn out when `CC(=O)N[C@H]1CSSC[C@@H](C(=O)N2CCC[C@H]2C(=O)N2CCC[C@H]2C(=O)N[C@@H](CCCCN)C(=O)N[C@@H](CC(=O)O)C(=O)NCCC(=O)N[C@@H](CCCNC(=N)N)C(=O)N[C@@H](CCCNC(=N)N)C(=O)N[C@@H](CCCCN)C(=O)N[C@@H](CCCNC(=N)N)C(=O)N[C@@H](CCCNC(=N)N)C(=O)N[C@@H](CCC(N)=O)C(=O)N[C@@H](CCCNC(=N)N)C(=O)N[C@@H](CCCNC(=N)N)C(=O)N[C@@H](CCCNC(=N)N)C(N)=O)NC(=O)[C@H](C)NC(=O)[C@H](Cc2csc3ccccc23)NC(=O)[C@H](CCCNC(=N)N)NC(=O)[C@@H](Cc2ccc3ccccc3c2)NC(=O)[C@H](Cc2c[nH]cn2)NC(=O)[C@H](CCC(=O)O)NC1=O` was run?
Its Ki is 0.442 nM.

And the Ki ([8]; Ki hMC5-R, Table 6)?
The Ki was 15.5 nM.

What about the EC50 [4] of the same compound?
The EC50 was 232 nM.

What about the Kb [6] of the same compound?
Its Kb is 10 nM.

What about the EC50 [7] of the same compound?
Its EC50 is 250 nM.

What does the source list for `C[C@@H](O)[C@H](NC(=O)[C@H]1CSSC[C@H](NC(=O)[C@H](N)Cc2ccccc2)C(=O)N[C@@H](Cc2c[nH]cn2)C(=O)N[C@H](Cc2ccccc2)C(=O)N[C@@H](CCCNC(=N)N)C(=O)N[C@@H](Cc2c[nH]c3ccccc23)C(=O)NCCCC(=O)N1)C(N)=O` [D-Phe-c(Cys-His-D-Phe-Arg-Trp-Gaba-D-Cys)-Thr-NH2] (H-[dF]CH[dF]RW[GABA][dC]T-NH2; disulfide 2-8)?
Ki ([1]; read-out: Ki hMC1-R): 0.42 nM; Ki ([2]; read-out: Ki hMC3-R): 106 nM; Ki ([3]; Table 5, read-out: Ki KMC4-R): 4.75 nM; Ki ([8]; Table 5, read-out: Ki hMC5-R): 1260 nM

— US20120135923A1, “Use of Melanocortins to Treat Dyslipidemia” (IPSEN PHARMA, S.A.S., priority 2009, published 2012)
